Values of other authors in patent US20080112918A1, “Method for treating gout and binding uric acid” (priority 2001, published 2008).

Settings: administered orally; treatment of gouty arthritis

COc1cc2c(c(OC)c1OC)-c1ccc(OC)c(=O)cc1[C@@H](NC(C)=O)CC2 [colchicine]
people who cannot tolerate the drug because of side effects: 80%
